This is an account of results in a melting point compilation (Tetko et al.; mined from patent text by program, amines drawn as free bases though some values may be those of a salt).

Molecules are shown by their SMILES.

As to `COC(=O)c1cc(-c2cccc(C3=NC(C)(C)Cc4cc(OC)c5c(c43)CC(C)(C)O5)c2)ccc1NC(C)=O`, the melting point lay in the range of 116 to 119 °C.

Compound `CC(C)(C)c1cc(=S)cc(C(C)(C)C)s1` displayed a melting point of 162 °C. In the case of `Cn1c(C(=O)NCCCNC2CCCCC2)ccc1-c1nc(-c2cccc(C(F)(F)F)c2)cs1`, the melting point lay within 120 to 123 °C. Regarding `O=S(=O)(Nc1ncncc1-c1ccc(Cl)cc1)c1ccc(O)cc1`, the melting point was in the range of 231 to 232 °C.

`CSCc1cn(C)c2c(Cl)cccc2c1=O` returned a melting point of 146 to 148 °C. With `Oc1cccc(C(F)(F)F)n1`, the melting point is 117 to 118 °C. As for `N#Cc1ccc(NC(=O)NC(=O)c2ccccc2F)c(Cl)c1Cl`, the melting point fell in the range of 298 to 300 °C. The value for `NC(=O)c1ccc(NC2CCCN(Cc3ccccc3)C2)cc1` (stereo not given) was 158 to 160 °C; that for `Cc1ccc2c(c1)C1(OCCO1)C1(CCC(=O)CC1)C2` was 116 to 118 °C.

`CC1CC2=CC(=O)CCC2C2C(O)CC3(C)C(O)CCC3C12` (stereo not given): the melting point is 163 °C.

Turning to `CC(C)N1CCN(c2ccc(OCCCCCCC(O)(Cn3ccnc3)c3ccc(Cl)cc3Cl)cc2)CC1` (stereo not given), the melting point was 143 to 145 °C. Consider `CN1C(=O)c2ccccc2OC1C(Cl)(Cl)Cl` (stereo not given), for which the melting point was 82 to 84 °C. Compound `O=C(O)CCCCCCC1(CCCCCCC(=O)O)C(=O)NC(=O)N1CCC(O)C1CCCCC1` (stereo not given) yielded a melting point of 116 to 118 °C.

`O=C(O)CCCc1cc2cc(Cl)ccc2n1S(=O)(=O)c1ccc2c(c1)OCCO2` showed a melting point of 131 to 134 °C. The value for `CCCCCCCc1[nH]c2cc(C(=O)OC)ccc2c1C=O` was 177 to 180 °C.

Take `CC(C)C(C(=O)O)N1C(=O)C2C3C=CC(CC3)C2C1=O` (stereo not given): the melting point was 156 °C. On to `CCOC(=O)c1cc(-c2csc(-c3ccnc(NC)c3)n2)c(=O)[nH]c1C(C)C`, for which the melting point is over 230 °C. `C=CCN1C(C)(C)CC(=C2CC(C)(C)N(CC=C)C(C)(C)C2)CC1(C)C` showed a melting point of 147 to 148 °C. As to `CCc1n[nH]c(C(N)=O)c1NC(=O)c1cc(S(C)(=O)=O)ccc1OCc1ccccn1`, the melting point is 134 to 138 °C. Turning to `Brc1ccc2nc(N3CCOCC3)nn2c1`, the melting point was found to be 136 °C. Regarding `CC(=O)OC1CSC(Oc2cncc(-c3ccc(C)cc3Cl)c2)C(OC(C)=O)C1OC(C)=O` (stereo not given), the melting point was determined as 162 °C. Compound `CCn1c(=O)c(C(=O)NCCO)c(NCCO)c2cnc(-c3ccccc3)nc21` returned a melting point of 250 to 253 °C. For `CC(C)(CCN1CCc2ccc(S(=O)(=O)Nc3cccc(Cl)c3)cc2C1)C(=O)O`, the melting point came to 120 °C. Regarding `NC(=O)/C=C/c1ccc(F)cc1`, the melting point came out at 130 °C. Take `COC(=O)C1=C(O)c2sc3ccccc3c2S(=O)(=O)N1`: the melting point was 240 to 242 °C. For the compound `CCOC(=O)C(Cc1nc2cc(Cl)c(Cl)cc2nc1CP(=O)(OC)OC)(NC(C)=O)C(=O)OCC`, the melting point is 130 to 132 °C. Turning to `CNc1nc(Cl)cc(NS(=O)(=O)c2ccccc2)n1`, the melting point fell in the range of 186 to 187 °C. On to `CC(C)(C)OC(=O)Nc1cc(N2CC3OC(C)(C)OC3C2)c(-c2ccc(F)cc2)cc1[N+](=O)[O-]` (stereo not given), for which the melting point was 119 °C. As to `CCCCCC(O)CCn1[nH]c(=O)n(C)c1=O` (stereo not given), the melting point lay within 85 to 88 °C. Turning to `Cc1ccc(C2N=C(c3ccccc3)NC3=C2CCc2c(-c4ccccc4)cc(-c4ccccc4)nc23)cc1` (stereo not given), the melting point fell in the range of 128 to 133 °C. The value for `NC(=O)c1cc(Cl)c(Sc2ccc(Cl)cc2)c(Cl)c1` was 171 to 174 °C; that for `O=S1(=O)CC(=Cc2ccc(Cl)cc2)C2=NN(c3ccccc3)C(c3ccc(Cl)cc3)C2C1` (stereo not given) was 246 to 249 °C. The compound `CS(=O)(=O)c1ccc(-c2cccn2-c2ccc3c(c2)OCO3)cc1` returned a melting point of 172 to 175 °C. Compound `NC(=O)N(O)CCOCc1ccco1` returned a melting point of 72 to 75 °C. `CC(=O)Nc1ccc(C(=O)N2CC3CNCC(C3)C2)cc1` displayed a melting point of 186 to 189 °C. For `O=C(OCc1ccccc1)[C@H](O)CCc1ccccc1`, the melting point lay in the range of 59 to 60 °C. In turn, `COc1ccc(C2C3=C(COC3=O)Nc3ccc4cc(C)[nH]c4c32)c(F)c1` (stereo not given) had a melting point of 205 to 207 °C. The compound `CC1CCC(=NN)c2ncc(C(N)=O)c(=O)n21` (stereo not given) registered a melting point of 248 to 250 °C.

For the compound `N#Cc1c(Cl)cc(Cl)c(CCC(=O)O)c1Cl`, the melting point was in the range of 127 to 129 °C. `O=C(CNc1ccccc1)Nc1cc(F)c(F)cc1C(=O)O` registered a melting point of 124 to 126 °C.

`c1cn(-c2cc(-n3cnc4cc(-c5ccoc5)ccc43)ncn2)cn1`: the melting point lay within 294 to 296 °C. For `CC(=O)N1CCN=C1Nc1cc(C)nn1-c1cccc(C(F)(F)F)c1`, the melting point was 173 to 175 °C. As to `Cn1c(C(F)(F)F)cc(=O)n(Nc2cccc(Cl)c2Cl)c1=O`, the melting point came out at 179 °C. The value for `Oc1c(CN2CCSCC2)ncc2c1COC2c1ccccc1` (stereo not given) was 185 °C; that for `COc1c(N(C)C)cc(CC(C#N)=CNc2ccccc2)cc1N(C)C` was 103 to 105 °C; that for `CCc1ccc(Nc2nc3cc(NC(=O)c4cc(OC)c(OC)c(OC)c4)ccc3o2)cc1` was over 250 °C. `CCCCCCN(C)c1ccc(C=C2SC(=S)N(CC(=O)NS(=O)(=O)c3ccccc3)C2=O)cc1` had a melting point of 173 to 177 °C. `O=C1OC(=O)c2c(Cl)cc(Cl)cc21` yielded a melting point of 90 to 94 °C. In turn, `CCOC(=O)C(N)c1c[nH]c2c(CC)cccc12` (stereo not given) gave a melting point of 120 to 122 °C. Compound `CCOC(=O)C(C(=O)Nc1cc(OC)c(OC)c(OC)c1)(c1ccccc1)c1ccccc1` gave a melting point of 109 to 111 °C. Turning to `Cc1ccc(S(=O)(=O)N2C(=O)N(c3ccc(Cl)cc3)C(C)(O)C2O)cc1` (stereo not given), the melting point was 60 to 70 °C. The value for `O=c1c(O)c(C#Cc2ccccc2)oc2ccccc12` was 153 to 154 °C; that for `CCN(CC)c1ccc(C=C2CC(C)CC(=Cc3ccc(N(CC)CC)cc3)C2=O)cc1` (stereo not given) was 169 °C.

`CC(C)Oc1cc(-n2c(Cl)nc(C(F)(F)F)cc2=O)c(F)cc1Br`: the melting point is 102 °C. The value for `COc1ccc(-n2nc(CCC#N)cc2-c2ccc(Cl)cc2)cc1` was 107 to 109 °C; that for `CC(C)(C)c1cc(OCC(N)=S)cc(C(C)(C)C)c1O` was 163 to 164 °C; that for `COc1ccc(Cn2c(=O)c(C#N)c(Cl)c3cc(F)cnc32)cc1` was 195 °C. Compound `CNC(=S)N1CC=C(C(C)(C)C)CC1` displayed a melting point of 76 to 78 °C. The value for `O=C(O)CCc1ccc(Cl)cc1F` was 83 to 85 °C. The value for `O=Cc1c(Cl)cncc1Cl` was 110 to 111 °C; that for `CCc1cc2c(s1)SCCc1cc(=O)[nH]nc1-2` was 256 to 258 °C.

`CC(C)(C)OC(=O)Nc1ccc(-c2ccc(OC(F)(F)F)cc2)cc1[N+](=O)[O-]` had a melting point of 145 to 147 °C. On to `CCCCC(=N)NC(=O)Nc1cccc(Cl)c1`, for which the melting point lay in the range of 135 to 137 °C.

`COc1ccc(Cn2c(=O)c3nccnc3n(CCCCBr)c2=O)cc1`: the melting point was 117 to 119 °C. For `CCn1ncc2c(O)c(CCc3ccccc3)c(C)nc21`, the melting point lay in the range of 251 to 256 °C. For the compound `SCC1CSC2(SCCS2)S1` (stereo not given), the melting point is 79 to 80.5 °C.

Compound `CC(=O)n1c(=O)n(CCCN2CCN(C(c3ccccc3)c3ccccc3)CC2)c2ccccc21` came in with a melting point of 124 °C.

`Nc1nc2ccccc2c2c1nc(CO)n2CC1(O)CCCCC1` returned a melting point of 244 to 248 °C. Compound `O=C(O)c1ccc(Cl)c2c1CCNCC2` yielded a melting point of 144 to 149 °C. Consider `O=Cc1c[nH]c2c1ccc1c3cc(-c4ccc(C(F)(F)F)cc4)ccc3[nH]c12`, for which the melting point was over 250 °C.

Compound `CCc1nc2cc(COC)c(Cl)cc2n1-c1ccc(CCOC(=O)NS(=O)(=O)c2ccc(C)cc2)cc1` returned a melting point of 174 °C. As for `O=C(O)Cc1ccccc1Oc1ccc(C(F)(F)F)cc1[N+](=O)[O-]`, the melting point is 165 to 167 °C. The value for `CCCn1c(I)c2c3c(cccc31)C1CC(NC(=O)N(CC)CC)CN(C)C1C2` (stereo not given) was 114 to 117 °C; that for `CCC1(CCOC2CCCCO2)C(=O)NNC1=O` (stereo not given) was 188 to 191 °C. Compound `Cc1cc(-c2ccc(Cl)c(Cl)c2)nc(-c2cccc(-c3cccc(S(N)(=O)=O)c3)c2)n1` showed a melting point of 206 °C. The compound `CC(C)n1nc(-c2c(-c3ccccc3)nn3ccc(OCCN4CCCCC4)cc23)ccc1=O` showed a melting point of 144 °C.

Take `COc1cc(N2C(=O)C3(CC3)[C@@H](O)[C@@H]2C)ccc1C#N`: the melting point lay within 167 to 169 °C. `COC(=O)C(C)(C)S(=O)(=O)N1CCC(c2ccc(-c3cccc(OCCO)n3)c(C)c2)CC1` had a melting point of 108 to 111 °C. The value for `O=C(Cl)C(=O)c1cn(Cc2ccc(Cl)cc2)c2ccccc12` was 151 to 153 °C; that for `CCCc1nc2cccc(C(=O)OC)c2n1Cc1ccc(-c2ccccc2C(=N)NOC(C)=O)cc1` was 177 to 178 °C; that for `Cc1ncccc1-c1cncc(OC2SCC(O)C(O)C2O)c1` (stereo not given) was 204 to 207 °C. Compound `Oc1c(F)cc2c(c1F)CC(n1cc[nH]c1=S)CC2` (stereo not given) showed a melting point of 258 to 260 °C. The value for `O=c1[nH]c2cscc2c(=O)n1CCN1CCN(c2ccc(Cl)cc2)CC1` was over 250 °C; that for `O=C(O)Cc1cccc(C(=O)c2ccc(Cl)cc2)c1` was 148 °C. In the case of `CCOC(=O)c1cccc(-c2ccc3c(c2)C(O)CCC3)c1` (stereo not given), the melting point was in the range of 88 to 100 °C.

The compound `Fc1cc2[nH]c(S)nc2cc1N1CCCC1` had a melting point of 170 to 171 °C. `O=C1CCSC(c2ccccc2Cl)c2cc([N+](=O)[O-])ccc2N1` (stereo not given) returned a melting point of 285 °C. `O=C(c1ccc2c(=O)n(CCCCN3CC=C(c4ccccc4)CC3)c(=O)[nH]c2c1)N1CCOCC1` returned a melting point of 206 to 210 °C.

`CC(C)S(=O)(=O)NC(=O)Nc1ccc(Cl)c(C(F)(F)F)c1`: the melting point was 135 to 140 °C.

`Cc1oc(-c2ccco2)nc1COc1ccc(COc2nn(Cc3ccccc3)cc2C(=O)O)cn1` displayed a melting point of 151 to 152 °C.

By melting point is commonly meant the temperature of the solid-liquid transition.
